Earlier results in article PMC3892053, “Pharmacokinetic/pharmacodynamic modeling for the determination of a cimicoxib dosing regimen in the dog” (BMC Veterinary Research, 2013).
Like-named read-outs stand apart in the source and are kept apart here.

Experiments:
[1] = cited from earlier work
COX-1/COX-2 = details: cited from earlier work; for greater potency for COX-2 inhibition: highly selective COX-2 inhibitors
nociceptive threshold = system: nociceptive threshold; design: method as in PMID 19186002; details: rats, given systemically; cited from earlier work
g.i.t side effects = system: g.i.t side effects; design: method as in PMID 16871494; details: large scale survey, mainly vomiting; cited from earlier work
wound healing = system: wound healing; design: method as in PMID 19175721; details: mechanism independent of prostaglandin synthesis; cited from earlier work
[2] = as quoted in Discussion, no reference given
[3] = population PK survey in osteoarthritic dogs

CCc1ccc(Nc2c(F)c(F)cc(F)c2F)c(CC(=O)O)c1 [robenacoxib]
half-life [1, 2]: 1 h | half-life ([1]; beagle dogs): 0.63 h | plasma clearance ([1]; dog): 13.5 mL/min/kg | greater potency for COX-2 inhibition (COX-1/COX-2): more than 100 fold

CN1C(C(=O)Nc2ccccn2)=C(O)c2ccccc2S1(=O)=O [piroxicam]
hypoalgesia (ipsilateral nociceptive threshold raised above basal values) (nociceptive threshold): not observed

COc1ccc2c(c1)c(CC(=O)O)c(C)n2C(=O)c1ccc(Cl)cc1 [indomethacin]
hypoalgesia (ipsilateral nociceptive threshold raised above basal values) (nociceptive threshold): not observed

Cc1ccc(-c2cc(C(F)(F)F)nn2-c2ccc(S(N)(=O)=O)cc2)cc1 [celecoxib]
hypoalgesia (ipsilateral nociceptive threshold raised above basal values) (nociceptive threshold): induced a state of hypoalgesia

CC1(C)OC(=O)C(OCC2CC2)=C1c1ccc(S(C)(=O)=O)cc1 [firocoxib]
half-life [1, 2]: 7 h | plasma clearance ([1]; dog): 7.7 mL/min/kg | half-life ([1]; mixed-breed dogs): 5.9 h | greater potency for COX-2 inhibition (COX-1/COX-2): more than 100 fold | COX-1/COX-2 selectivity index (COX-1/COX-2; whole blood assay): 384 | withdrawal rate associated with g.i.t side effects (g.i.t side effects): 2.9 % of dogs | effect on wound healing (wound healing): slow down wound healing

NS(=O)(=O)c1ccc(-n2nc(C(F)(F)F)cc2-c2ccc(F)cc2)cc1 [mavacoxib]
half-life ([1]; dog, in vivo): 415 h | plasma clearance ([1]; dog, in vivo): 0.045 mL/min/kg | half-life of some beagle dogs ([1]; laboratory beagle dogs): > 720 h | terminal half-life in some dogs (5% of the population) [1, 3]: exceeded 80 days | terminal half-life, extreme values [1, 3]: up to 140 days | typical terminal half-life (population mean) [1, 3]: 1060 h

CC(C(=O)O)c1ccc2c(c1)[nH]c1ccc(Cl)cc12 (stereo not drawn) [Carprofen]
half-life ([1]; dogs): about 9 h
